Results as given in patent US20210052701A1, “Methods of Treating Vascular Leakage Using CXCL12 Peptides” (The Medical College of Wisconsin, Inc., priority 2018, published 2021).
“Also recorded” adds a separate entry of the source.

Experiments:
hPPAEC = test: Effects of CXCR4 agonists / CXCL12 variants on thrombin-induced impairment of hPPAEC monolayer permeability; assay type: cell-based, human
Procedure, shortened: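 Confluent hPPAEC monolayers on collagen-coated permeable membranes were exposed to 35 nM thrombin; 10 min later, agonists or CXCL12 variants (0.05–50 nM) were added, ± AMD3100 10 μM. FITC-dextran (20 μg/mL) crossing the monolayer was read by fluorescence over 255 min. % inhibition of hyperpermeability was taken at 255 min; N=3 in quadruplicate.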

[1] = system: animal model of acute respiratory distress syndrome (ARDS); test: Animal model of ARDS: lung ischemia reperfusion injury plus hemorrhage (P:F ratio, lung injury score); assay type: in vivo, Sprague-Dawley rats
Procedure: Animals underwent 70 min of […] lung ischemia for 70 min plus hemorrhage to a MAP of 40 mmHg for the last 30 min of ischemia, followed by fluid resuscitation to a MAP of 60 mmHg until t=300 min. Arrow: drug injection. Dashed lines indicate the P:F ratio (mmHg) threshold values for the diagnosis of mild, moderate and severe ARDS. Vehicle: n=5. CXCL12: n=3. CXCL12: n=4. CXCL12-LM: n=3, CXCL12-LD: n=4. CXCL12 K27A/R41A/R47A: n=3. LI+HEM: lung ischemia reperfusion injury plus hemorrhage. Data are mean±SEM. *: p<0.05 vs. vehicle (2-way ANOVA/Dunnett's multiple comparisons test).
FIGS. 12A-12C show lung histology after treatment with CXCL12 and engineered CXCR4 agonists A. Lung specimens were placed in formalin fixative solution and were then embedded in paraffin wax, sliced into 5 μm sections and stained with H&E. Representative images from H&E stained lung sections from animals after vehicle (left) and CXCL12 ([…], right treatment. B/C. Lung injury scores (B. uninjured (left) lung; C. injured (right) lung). Data are median±interquartile ranges. Data were analyzed with the Kruskal Wallis test with Dunn's multiple comparisons test. The level of statistical significance (p) vs. ctrl. (vehicle treatment) indicated.
We tested therapeutic efficacy of wild-type CXCL12, CXXL12-locked dimer (LD), CXCL12-locked monomer (LM) and the triple mutant CXCL12 K27A/R41A/R47A in an animal model of acute respiratory distress syndrome (ARDS) (FIG. 11). All drugs were injected in a dose of 0.14 μmol/kg. Male Sprague-Dawley rats were anesthetized, orotracheally intubated, instrumented with arterial/venous catheters, and mechanically ventilated (PEEP 2 mmHg, FiO2 1.0). After a right lateral thoracotomy, a suture was tied around the hilum of the right lung. Animals underwent 70 min of right lung ischemia plus hemorrhage to a mean arterial blood pressure (MAP) of 40 mmHg for the last 30 min of lung ischemia. At t=70 min, the suture was removed, animals were ventilated with FiO2 1.0, PEEP 5 mmHg and resuscitated with crystalloids to a MAP of 60 mmHg until t=300 min. Vehicle and drugs were injected i.v. within 10 min after reperfusion.
We further evaluated histomorphology of the lungs from animals treated with vehicle, wild-type CXCL12, CXCL12-LD and CXCXL12-LM utilizing a standardized lung injury score. Lung slides stained with hematoxylin and eosin were examined under a light microscope by 4 investigators blinded to the identity of the specimens. The lung injury score was assessed as previously described/. In brief each investigator rendered a score of 0 (no damage) to 4+(maximal damage) based on an injury grading scale composed of six criteria. The slides were assessed for the extent of alveolar congestion, hemorrhage and edema, as well as alveolar and vessel wall PMN infiltration and alveolar wall thickness. […] Lung injury scores of the uninjured and injured lungs from animals treated with vehicle, wild-type CXCL12, CXCL12-LD and CXCXL12-LM are shown in FIGS. […], respectively.

With “CXCL12: Wild-type CXCL12 (SEQ ID NO:1), cognate agonist of CXCR4 and ACKR3” the “effect of pre-treatment on thrombin-induced hyper-permeability of hPPAEC” value (hPPAEC; 100 nM for 10 min, then thrombin (50 nM)) was “significantly attenuated thrombin-induced hyper-permeability of hPPAEC; also recorded: more efficacious than ubiquitin”, the “effect on thrombin-induced permeability of hPPAEC when added after thrombin” value (hPPAEC; thrombin 35 nM, after 10 min CXCL12 or ubiquitin 50 nM, AMD3100 10 μM) was “significantly attenuated thrombin-induced permeability of hPPAEC” and the “development of ARDS (P:F ratio)” value ([1]; 0.14 μmol/kg i.v. within 10 min after reperfusion, until t=300 min) was “development of ARDS was delayed and attenuated”. The “time at which criteria for mild ARDS were fulfilled” value ([1]; 0.14 μmol/kg i.v., P:F ratio<300 mmHg) was 300 min, the “P:F ratios compared with vehicle treated animals” value ([1]; 0.14 μmol/kg i.v., t=90-240 min) was “significantly higher” and the “histological signs of lung injury, injured lung (lung injury score)” value ([1]; H&E sections, vs. vehicle) was “significantly reduced”.
